Measured values as given in PubChem BioAssay AID330 (DTP/NCI, 2004).
“And” between values parts separate entries of the source, which are not always exact repeats. Equal values may be shown once. Toxic doses and inconclusive results are not listed.

System: P388 leukemia ip, CD2F1 mice, survival T/C
Assay: NCI In Vivo Anticancer Drug Screen. Data for tumor model P388 Leukemia (intraperitoneal) in CD2F1 (CDF1) mice
Conditions: endpoint: median survival time, higher = longer survival
In short: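 Mice carrying the transplanted tumor received test compound or vehicle. Survival was recorded in each group, and the value is the treated-group measurement divided by that of the vehicle-treated control group.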

[1] = dose: 60.0 mg/kg/injection, schedule: Q01DX005 (ip), vehicle: saline with Tween-80
[2] = dose: 120.0 mg/kg/injection, schedule: Q01DX005 (ip), vehicle: saline with Tween-80
[3] = dose: 240.0 mg/kg/injection, schedule: Q01DX005 (ip), vehicle: saline with Tween-80
[4] = dose: 100.0 mg/kg/injection, schedule: Q04DX003 (ip), vehicle: saline
[5] = dose: 200.0 mg/kg/injection, schedule: Q04DX003 (ip), vehicle: saline
[6] = dose: 400.0 mg/kg/injection, schedule: Q04DX003 (ip), vehicle: saline
[7] = dose: 50.0 mg/kg/injection, schedule: Q01DX005 (ip), vehicle: saline with Tween-80
[8] = dose: 100.0 mg/kg/injection, schedule: Q01DX005 (ip), vehicle: saline with Tween-80
[9] = dose: 200.0 mg/kg/injection, schedule: Q01DX005 (ip), vehicle: saline with Tween-80
[10] = dose: 2.5 mg/kg/injection, schedule: Q01DX009 (ip), vehicle: saline with Tween-80
[11] = dose: 50.0 mg/kg/injection, schedule: Q01DX005 (ip), vehicle: Klucel (hydroxypropylcellulose) (HPC)
[12] = dose: 100.0 mg/kg/injection, schedule: Q01DX005 (ip), vehicle: Klucel (hydroxypropylcellulose) (HPC)
[13] = dose: 200.0 mg/kg/injection, schedule: Q01DX005 (ip), vehicle: Klucel (hydroxypropylcellulose) (HPC)

CCCCCCCCC1(OCCCS(=O)(=O)O)COc2ccccc2OCCOCCOc2ccccc2OC1
T/C (dose: 30.0 mg/kg/injection, schedule: Q01DX005 (ip), vehicle: saline with Tween-80): 96 % of control
T/C [1]: 94 % of control

O=C(O)c1cc2c(c(C(=O)O)c1O)CCCC2
T/C (dose: 6.25 mg/kg/injection, schedule: Q01DX005 (ip), vehicle: saline): 94 % of control
T/C (dose: 12.5 mg/kg/injection, schedule: Q01DX005 (ip), vehicle: saline): 92 % of control
T/C (dose: 25.0 mg/kg/injection, schedule: Q01DX005 (ip), vehicle: saline): 94 % of control

NC(=O)c1cc2c(oc1=O)-c1ccccc1OC2
T/C [1]: 98 % of control
T/C [2]: 95 % of control
T/C [3]: 95 % of control

Cc1ccc(S(=O)(=O)CCC(=O)c2ccccc2)cc1
T/C [4]: 104 % of control
T/C [5]: 100 % of control
T/C [6]: 101 % of control

CC1CC(C)OC(C(C)(C)C)O1 (stereo unspecified)
T/C (dose: 60.0 mg/kg/injection, schedule: Q01DX005 (ip), vehicle: saline): 107 % of control
T/C (dose: 120.0 mg/kg/injection, schedule: Q01DX005 (ip), vehicle: saline): 109 % of control
T/C (dose: 240.0 mg/kg/injection, schedule: Q01DX005 (ip), vehicle: saline): 107 % of control

CN(C)CCC(OC(=O)c1ccccc1Cl)c1ccccc1 (stereo unspecified)
T/C (dose: 25.0 mg/kg/injection, schedule: Q01DX009 (ip), vehicle: saline): 99 % of control and 100 % of control and 101 % of control
T/C (dose: 50.0 mg/kg/injection, schedule: Q01DX009 (ip), vehicle: saline): 101 % of control and 107 % of control and 117 % of control
T/C (dose: 100.0 mg/kg/injection, schedule: Q01DX009 (ip), vehicle: saline): 108 % of control and 116 % of control

CCC/C(=N\N=C(N)N)c1ccc(Cl)cc1
T/C (dose: 25.0 mg/kg/injection, schedule: Q04DX002 (ip), vehicle: saline with Tween-80): 100 % of control

Cc1nn(N)c2[nH]c(Cl)cc(=O)c12
T/C [7]: 97 % of control
T/C [8]: 109 % of control
T/C [9]: 116 % of control

COc1cc(OC)c(C/C=C/c2ccccc2)cc1O
T/C [10]: 100 % of control
T/C (dose: 5.0 mg/kg/injection, schedule: Q01DX009 (ip), vehicle: saline with Tween-80): 100 % of control
T/C (dose: 10.0 mg/kg/injection, schedule: Q01DX009 (ip), vehicle: saline with Tween-80): 102 % of control

CCC(O)C1(C#Cc2ccccc2)Sc2ccccc2N1C (stereo unspecified)
T/C [1]: 107 % of control
T/C [2]: 110 % of control
T/C [3]: 110 % of control

Nc1cc2nc3ccccc3nc2cc1N
T/C (dose: 25.0 mg/kg/injection, schedule: Q01DX005 (ip), vehicle: saline with Tween-80): 91 % of control
T/C [7]: 90 % of control

O=C(NC(=S)Nc1ncn[nH]1)c1ccc(Cl)c(Cl)c1
T/C (dose: 12.5 mg/kg/injection, schedule: Q01DX009 (ip), vehicle: saline with Tween-80): 104 % of control
T/C (dose: 25.0 mg/kg/injection, schedule: Q01DX009 (ip), vehicle: saline with Tween-80): 100 % of control
T/C (dose: 50.0 mg/kg/injection, schedule: Q01DX009 (ip), vehicle: saline with Tween-80): 95 % of control
T/C (dose: 100.0 mg/kg/injection, schedule: Q01DX009 (ip), vehicle: saline with Tween-80): 91 % of control
T/C (dose: 200.0 mg/kg/injection, schedule: Q01DX009 (ip), vehicle: saline with Tween-80): 92 % of control

c1ccc(-c2cc3nncc(-c4ccccc4)n3n2)cc1
T/C [11]: 107 % of control
T/C [12]: 105 % of control
T/C [13]: 96 % of control

O=C(O)c1cc(C(=O)O)cc([N+](=O)[O-])c1
T/C (dose: 25.0 mg/kg/injection, schedule: Q04DX003 (ip), vehicle: saline with Tween-80): 100 % of control
T/C (dose: 50.0 mg/kg/injection, schedule: Q04DX003 (ip), vehicle: saline with Tween-80): 100 % of control
T/C (dose: 100.0 mg/kg/injection, schedule: Q04DX003 (ip), vehicle: saline with Tween-80): 100 % of control

S=c1cn[nH]c2ccc(S)cc12
T/C [7]: 88 % of control
T/C [8]: 99 % of control
T/C [9]: 97 % of control

COc1ccccc1C1NC(c2ccccc2OC)C2CCCC1C2=O (stereo unspecified)
T/C [4]: 88 % of control
T/C [5]: 88 % of control
T/C [6]: 90 % of control

Cc1ccc(S(=O)(=O)NC(=O)N2CCc3ccccc32)cc1
T/C [11]: 105 % of control
T/C [12]: 105 % of control
T/C [13]: 93 % of control

CC1CCC(C(C)C)C(NC(=O)C[n+]2cccc(C(N)=O)c2)C1 (stereo unspecified)
T/C (dose: 12.5 mg/kg/injection, schedule: Q04DX002 (ip), vehicle: saline): 99 % of control
T/C (dose: 25.0 mg/kg/injection, schedule: Q04DX002 (ip), vehicle: saline): 105 % of control
T/C (dose: 50.0 mg/kg/injection, schedule: Q04DX002 (ip), vehicle: saline): 101 % of control

CC(=O)O[C@@H]1C[C@@](C)(C[C@H]2COC(=O)C2)[C@@H]2CC(=O)O[C@@H]3C[C@H]4C(C)=C[C@@H](O)C(=O)[C@]4(C)[C@@H]1[C@@]32C
T/C (dose: 1.5 mg/kg/injection, schedule: Q01DX009 (ip), vehicle: Klucel (hydroxypropylcellulose) (HPC)): 99 % of control
T/C (dose: 3.0 mg/kg/injection, schedule: Q01DX009 (ip), vehicle: Klucel (hydroxypropylcellulose) (HPC)): 92 % of control
T/C (dose: 6.0 mg/kg/injection, schedule: Q01DX009 (ip), vehicle: Klucel (hydroxypropylcellulose) (HPC)): 108 % of control
T/C (dose: 12.0 mg/kg/injection, schedule: Q01DX009 (ip), vehicle: Klucel (hydroxypropylcellulose) (HPC)): 91 % of control

CSc1nc2c(Br)cnn2c(=O)[nH]1
T/C (dose: 100.0 mg/kg/injection, schedule: Q01DX001 (ip), vehicle: saline with Tween-80): 94 % of control
T/C (dose: 200.0 mg/kg/injection, schedule: Q01DX001 (ip), vehicle: saline with Tween-80): 101 % of control
T/C (dose: 400.0 mg/kg/injection, schedule: Q01DX001 (ip), vehicle: saline with Tween-80): 100 % of control

CCOC(=O)Cc1csc(/C=C/c2ccc(OC)c(OC)c2)n1
T/C [1]: 96 % of control
T/C [2]: 96 % of control
T/C [3]: 90 % of control

CC1CN1CC(O)C(O)CN1CC1C (stereo unspecified)
T/C (dose: 0.01 mg/kg/injection, schedule: Q04DX003 (ip), vehicle: saline): 109 % of control
T/C (dose: 0.02 mg/kg/injection, schedule: Q04DX003 (ip), vehicle: saline): 104 % of control
T/C (dose: 0.15 mg/kg/injection, schedule: Q04DX003 (ip), vehicle: saline): 160 % of control
T/C (dose: 0.3 mg/kg/injection, schedule: Q04DX003 (ip), vehicle: saline): 170 % of control
T/C (dose: 0.5 mg/kg/injection, schedule: Q04DX003 (ip), vehicle: saline): 160 % of control
T/C (dose: 0.6 mg/kg/injection, schedule: Q04DX003 (ip), vehicle: saline): 170 % of control
T/C (dose: 0.62 mg/kg/injection, schedule: Q04DX003 (ip), vehicle: saline): 154 % of control
T/C (dose: 1.0 mg/kg/injection, schedule: Q04DX003 (ip), vehicle: saline): 185 % of control
T/C (dose: 1.25 mg/kg/injection, schedule: Q01DX009 (ip), vehicle: saline with Tween-80): 272 % of control
T/C (dose: 1.25 mg/kg/injection, schedule: Q04DX003 (ip), vehicle: saline): 163 % of control
T/C (dose: 2.0 mg/kg/injection, schedule: Q04DX003 (ip), vehicle: saline): 240 % of control
T/C [10]: 95 % of control
T/C (dose: 2.5 mg/kg/injection, schedule: Q01DX009 (ip), vehicle: saline): 222 % of control
T/C (dose: 2.5 mg/kg/injection, schedule: Q04DX003 (ip), vehicle: saline): 222 % of control
T/C (dose: 3.0 mg/kg/injection, schedule: Q04DX003 (ip), vehicle: saline): 172 % of control
T/C (dose: 3.3 mg/kg/injection, schedule: Q04DX003 (ip), vehicle: saline): 212 % of control
T/C (dose: 5.0 mg/kg/injection, schedule: Q01DX009 (ip), vehicle: saline): 122 % of control
T/C (dose: 5.0 mg/kg/injection, schedule: Q04DX003 (ip), vehicle: saline): 231 % of control and 183 % of control and 230 % of control
T/C (dose: 6.0 mg/kg/injection, schedule: Q04DX003 (ip), vehicle: saline): 268 % of control
T/C (dose: 7.5 mg/kg/injection, schedule: Q04DX003 (ip), vehicle: saline): 272 % of control
T/C (dose: 10.0 mg/kg/injection, schedule: Q04DX003 (ip), vehicle: saline): 268 % of control
T/C (dose: 63.0 micrograms/kg/injection, schedule: Q04DX003 (ip), vehicle: saline): 100 % of control
T/C (dose: 125.0 micrograms/kg/injection, schedule: Q04DX003 (ip), vehicle: saline): 100 % of control
T/C (dose: 250.0 micrograms/kg/injection, schedule: Q04DX003 (ip), vehicle: saline): 104 % of control
